Experimental data: ChEMBL document CHEMBL3045417, “Structure, Conformation and Absolute Configuration of New Antifeedant Dolabellanes from Trichilia trifolia” (2000)

The compounds below were run on Sitophilus oryzae (assay: Antifeedant activity against Sitophilus oryzae (rice weevil) assessed as mean diet consumed after 72 hr by flour disk bioassay based feeding choice assay (reference value: 7.61 +/- 1.59 mg/day)).
Type: functional
`C=C(C)[C@H]1CC[C@]2(C)C/C=C(\C)CC/C=C(\C(=O)OC)CC[C@@H]12` was tested, and the Activity was 6.74 mg/day.
For `C=C(C)[C@H]1CC[C@]2(C)C[C@H](O)[C@]3(C)CCC=C(CC[C@@H]12)C(=O)O3`, the Activity was 1.03 mg/day.
Work on `C=C(C)[C@H]1CC[C@]2(C)C[C@H](OC(C)=O)[C@]3(C)CCC=C(CC[C@@H]12)C(=O)O3` yielded an Activity of 6.61 mg/day.
`C=C(C)[C@H]1CC[C@]2(C)C/C=C(\C)CC/C=C(\C(=O)O)CC[C@@H]12` was tested, and the Activity was 1.17 mg/day.
Compound `C=C(C)[C@H]1CC[C@]2(C)C/C=C(\C)C[C@@H]3C=C(CC[C@@H]12)C(=O)O3` has an Activity of 3.36 mg/day.
